From patent US6596753B2, “Compounds of the indolecarboxylic family and use thereof” (Societe L'Oreal S.A., priority 1997, dated 2003) come the findings set out here.

For assay [1], the target named is T1, 5α-reductase 2 (Homo sapiens, UniProt P31213).
T1 construct: made in house; host or cells: COS7 cells (ATCC, CRL 1651), transient transfection with pSG5; 100,000 x g pellet of the lysate
T1 sequence (P31213 1-254): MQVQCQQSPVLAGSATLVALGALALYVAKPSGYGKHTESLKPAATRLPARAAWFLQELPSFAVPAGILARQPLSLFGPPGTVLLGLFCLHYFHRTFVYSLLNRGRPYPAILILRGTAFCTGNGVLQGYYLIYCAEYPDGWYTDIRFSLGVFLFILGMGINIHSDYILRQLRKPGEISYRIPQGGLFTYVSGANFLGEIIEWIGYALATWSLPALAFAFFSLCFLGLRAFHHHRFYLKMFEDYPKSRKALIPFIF
Nature of the assay: Inhibition of type 2 5α-reductase (14C-testosterone to DHT conversion, lysate of transfected COS7 cells). Format: biochemical. Particulars: for IC50: pH 5.5 citrate buffer, 1 nM 14C-testosterone, 5 mM NADPH, 50 minutes at 37° C., read-out: 5α-reductases: IC50 Type II; for specificity for the type 2 5α-reductase (in words): type 2 versus type 1. The source says: (§1) The coding sequences (complementary deoxyribonucleic acids: cDNA) of 5α-reductase 1 and of 5α-reductase 2 were cloned in the eukaryotic expression vector pSG5 (Stratagene). The enzymes were over-expressed after transient transfection of COS7 cells (ATCC, CRL 1651). The cDNAs of 5α-reductase 1 and of 5α-reductase 2 were obtained by reverse transcription and polymerase chain reaction (PCR) using specific primers, starting with total RNA from human testicles (sold by the company Clontech).
The primers used to obtain the 5α-reductase 2 cDNA are:
+ strand: 5′ GCGATGCAGGTTCAGTG 3′
− strand: 5′ ATTGTGGGAGCTCTGCT 3′.
(§2) By standard genetic engineering techniques, the 5α-reductase 1 cDNA obtained was inserted into the BamHI site of pSG5 and that of 5α-reductase 2 was inserted into the EcoRI site (see Maniatis et al., Molecular Cloning, Cold Spring Harbor, 1989).
(§3) The positive clones (recombinants) were identified by the hybridization technique with a cold probe (Plex luminescent kits, Millipore) and mapped by enzymatic digestions and partial sequencing.
(§4) After transient transfection, the COS7 cells are lysed in a 10 mM Tris-HCl, pH=7/150 mM KCl/1 mM EDTA buffer by 3 cycles of freezing/thawing. The homogenate is centrifuged at 100,000× g for 1 hour. The pellets containing the 5α-reductase 1 or the 5α-reductase 2 are taken up in a 40 mM, pH 6.5 phosphate buffer or a 40 mM, pH 5.5 citrate buffer for the 5α-reductase 1 or 5α-reductase 2, respectively.
(§5) 5 μg of proteins thus obtained are incubated in a well of a 96-well plate (NUNC) in the presence of 1 nM ^14C-testosterone (Amersham) and 5 mM nicotinamide […] dinucleotide phosphate, reduced form (NADPH) (Sigma) in the corresponding buffer (40 mM, pH 6.5 phosphate buffer or 40 mM, pH 5.5 citrate buffer for the 5α-reductase 1 or 5α-reductase 2, respectively) for 50 minutes at 37° C. after addition of the test products. The test products are added at concentrations of 10^−4 M to 10^−10 M, diluted in 40 mM, pH 6.5 phosphate buffer or 40 mM, pH 5.5 citrate buffer for the 5α-reductase 1 or 5α-reductase 2, respectively.
(§6) The reaction mixtures are then placed directly on a silica plate (HPTLC, 60F 254, Merck) and subjected to chromatography (solvent=10% diethyl ether, 90% dichloromethane). They are then analysed by digital autoradiography (Berthold).
(§7) The inhibition of the activity of the isoenzymes is measured by calculating the percentage of dihydrotestosterone formed from ^14C-testosterone relative to an untreated control.

For assay [2], the target named is T2, 5α-reductase 1 (Homo sapiens, UniProt P18405).
T2 construct: made in house; host or cells: COS7 cells (ATCC, CRL 1651), transient transfection with pSG5; 100,000 x g pellet of the lysate
T2 sequence (P18405 1-259): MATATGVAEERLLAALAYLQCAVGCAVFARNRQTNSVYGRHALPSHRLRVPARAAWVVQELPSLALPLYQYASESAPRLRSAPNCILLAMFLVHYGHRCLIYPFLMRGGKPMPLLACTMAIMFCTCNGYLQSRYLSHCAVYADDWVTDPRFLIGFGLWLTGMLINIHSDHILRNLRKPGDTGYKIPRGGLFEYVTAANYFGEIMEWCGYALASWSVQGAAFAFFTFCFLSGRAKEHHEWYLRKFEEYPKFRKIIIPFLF
Nature of the assay: Inhibition of type 1 5α-reductase (14C-testosterone to DHT conversion, lysate of transfected COS7 cells). Format: biochemical. The following applies: for IC50: pH 6.5 phosphate buffer, 1 nM 14C-testosterone, 5 mM NADPH, 50 minutes at 37° C., read-out: 5α-reductases: IC50 Type I; for quality as inhibitor of 5α-reductase (in words): statement covers both types of 5α-reductase; for specificity with respect to type 1 5α-reductase (in words): type 1 versus type 2.
From the text: as §1
The primers used to obtain the 5α-reductase 1 cDNA are:
+ strand: 5′ […] 3′,
− strand: 5′ […] 3′.
as §2, §3, §4, §5, §6, §7

Where only a bound is given, the exact number is not on record here.

In general, IC50 refers to the midpoint of a concentration-inhibition curve. `Cc1c(C(=O)O)[nH]c2cc(OCc3ccccc3)c(OCc3ccccc3)cc12` [Compound b, 5,6-bis(benzyloxy)-3-methyl-1H-indole-2-carboxylic acid]: the concentration for half-maximal inhibition (IC50) in assay [1] came to 1 µM. For the same molecule, in assay [2], the IC50 was more than 100 µM, the “quality as inhibitor of 5α-reductase (in words)” value is listed as “moderate inhibitor” and the “specificity with respect to type 1 5α-reductase (in words)” value is reported as “more pronounced specificity for the type 1 5α-reductase”.
Turning to `COc1cc(OCc2ccccc2)c2cc(C(=O)O)[nH]c2c1` [Example 1, 4-benzyloxy-6-methoxy-1H-indole-2-carboxylic acid], the figures for the IC50 in assay [1] and in assay [2] were more than 100 µM and 1 to 4 µM, respectively. Besides, the “specificity with respect to type 1 5α-reductase (in words)” value in assay [2] is recorded as “very pronounced specificity with respect to type 1 5α-reductase”.
Consider `COc1cc(OCc2cc(C(F)(F)F)cc(C(F)(F)F)c2)c2cc(C(=O)O)[nH]c2c1` [Example 2, 4-[3,5-bis(trifluoromethyl)benzyloxy]-6-methoxy-1H-indole-2-carboxylic acid], for which the IC50 is more than 100 µM in assay [1] and 10 µM in assay [2]. Also, in assay [2], the “specificity with respect to type 1 5α-reductase (in words)” value is reported as “very pronounced specificity with respect to type 1 5α-reductase”.
Turning to `COc1cc2[nH]c(C(=O)O)cc2cc1OCc1cc(C(F)(F)F)cc(C(F)(F)F)c1` [Example 3, 5-[3,5-bis(trifluoromethyl)benzyloxy]-6-methoxy-1H-indole-2-carboxylic Acid], the half-maximal inhibitory concentration (IC50) in assay [1] is 0.001 to 0.005 µM; in assay [2] it was 0.5 µM. Moreover, the “quality as inhibitor of 5α-reductase (in words)” value in assay [2] is recorded as “very good inhibitors of the two types of 5α-reductase”.
For the molecule `COc1cc2[nH]c(C(=O)O)cc2cc1OCc1cc(OC)c(OC)c(OC)c1` [Example 4, 5-(3,4,5-trimethoxybenzyloxy)-6-methoxy-1H-indole-2-carboxylic acid], in assay [1], the half-inhibitory concentration (IC50) was 0.01 µM and the “specificity for the type 2 5α-reductase (in words)” value is listed as “more pronounced specificity for the type 2 5α-reductase”. Further, the 50% inhibitory concentration (IC50) in assay [2] was more than 100 µM.
Turning to `COc1ccc(COc2cc3cc(C(=O)O)[nH]c3cc2OC)cc1` [Example 5, 5-(4-methoxybenzyloxy)-6-methoxy-1H-indole-2-carboxylic acid], the IC50 in assay [1] was found to be 0.01 µM. Besides, in assay [2], the half-maximal inhibitory concentration (IC50) was 1 to 5 µM and the “quality as inhibitor of 5α-reductase (in words)” value is given as “very good inhibitors of the two types of 5α-reductase”.
On the same counts, the results for `COc1cc2[nH]c(C(=O)O)cc2cc1OCc1ccc(C#N)cc1` [Example 6, 5-(4-cyanobenzyloxy)-6-methoxy-1H-indole-2-carboxylic acid] are 0.04 µM, 5 µM and “very good inhibitors of the two types of 5α-reductase”.
For `O=C(O)c1cc2c(ccc3ccccc32)[nH]1` [Example 7, 3H-benz[e]indole-2-carboxylic acid], the IC50 in assay [1] was found to be 6 µM. Further, in assay [2], the IC50 was 3 µM and the “specificity with respect to type 1 5α-reductase (in words)” value was “pronounced specificity with respect to type 1 5α-reductase”.
For `Cn1c(C(=O)O)cc2c3ccccc3ccc21` [Example 8, 3-methyl-3H-benz[e]indole-2-carboxylic Acid], the IC50 in assay [1] turned out to be 10 µM. In assay [2], the 50% inhibitory concentration (IC50) came to 0.5 µM and the “specificity with respect to type 1 5α-reductase (in words)” value was “pronounced specificity with respect to type 1 5α-reductase”.
Take `COc1cc2[nH]c(C(=O)O)cc2cc1OCc1ccccc1` [a, 5-benzyloxy-6-methoxy-1H-indole-2-carboxylic acid]: the results for the concentration for half-maximal inhibition (IC50) in assay [1] and in assay [2] were 0.001 µM and 1 µM, respectively. The “quality as inhibitor of 5α-reductase (in words)” value in assay [2] was “very good inhibitors of the two types of 5α-reductase”.
As for `O=C(O)c1cc2cc(OCc3ccccc3)c(OCc3ccccc3)cc2[nH]1` [c, 5,6-bis(benzyloxy)-1H-indole-2-carboxylic acid], in assay [1], the 50% inhibitory concentration (IC50) came to 0.005 µM and the “specificity for the type 2 5α-reductase (in words)” value is given as “more pronounced specificity for the type 2 5α-reductase”. The concentration for half-maximal inhibition (IC50) in assay [2] was more than 100 µM.
